Assays:
[1] = biological target: SARS-CoV-2 3CLpro (Severe acute respiratory syndrome coronavirus 2, UniProt P0DTD1); test: biochemical; type: biochemical
[2] = biological target: MERS-CoV 3CLpro (Middle East respiratory syndrome-related coronavirus, UniProt K9N7C7); test: biochemical
[3] = Nonspecific cytotoxic effects / in vitro cytotoxicity; type: cell-based; details: human, HEK293T cells
[4] = tested on: PRRSV; test: Inhibition of replication of PRRSV; type: cell-based, porcine respiratory and reproductive syndrome virus (PRRSV)

MERS-CoV 3CLpro, sequence (K9N7C7 3248-3553 limits assumed): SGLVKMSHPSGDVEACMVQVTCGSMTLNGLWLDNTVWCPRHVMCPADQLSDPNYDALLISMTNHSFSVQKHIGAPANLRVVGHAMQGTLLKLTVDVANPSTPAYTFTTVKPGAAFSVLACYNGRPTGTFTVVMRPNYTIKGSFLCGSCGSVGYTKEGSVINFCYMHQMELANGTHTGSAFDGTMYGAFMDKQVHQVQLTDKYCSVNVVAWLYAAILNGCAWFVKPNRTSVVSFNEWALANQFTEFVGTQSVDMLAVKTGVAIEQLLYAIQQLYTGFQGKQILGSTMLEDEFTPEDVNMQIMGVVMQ

CC(C)C[C@H](NC(=O)OC(C)(C)C1CCC(F)(F)CC1)C(=O)N[C@@H](C[C@@H]1CCNC1=O)C(O)S(=O)(=O)[O-].[Na+] (stereo partly drawn) [Compound 13c, Sodium (2S)-2-((S)-2-((((2-(4,4-difluorocyclohexyl)propan-2-yl)oxy)carbonyl)amino)-4-methylpentanamido)-1-hydroxy-3-((S)-2-oxopyrrolidin-3-yl)propane-1-sulfonate]
IC50 higher than those of 12b and 14c [1]: ~ 4 fold

CCCC1CCC(COC(=O)NC(CC(C)C)C(=O)NC(C=O)CC2CCNC2=O)CC1 [Compound 8b, ((1r,4R)-4-Propylcyclohexyl) methyl ((2S)-4-methyl-1-oxo-1-(((2S)-1-oxo-3-(2-oxopyrrolidin-3-yl)propan-2-yl)amino)pentan-2-yl) carbamate]
IC50 [1]: 200 ± 30 nM | IC50 [2]: 60 ± 10 nM | CC50 at 72 h [3]: 43 ± 9 µM

CC(C)C[C@H](NC(=O)OCc1ccccc1)C(=O)N[C@@H](C[C@@H]1CCNC1=O)C(O)S(=O)(=O)[O-].[Na+] (some centres unmarked) [GC376]
inhibition of the replication of PRRSV [4]: none of them resulted in the reduction of viral replication

— publication PMC8673480 (Journal of medicinal chemistry, 2021)
